Measured values from patent US20230020663A1, “SULFONAMIDE INHIBITORS AS CTPS1 INHIBITORS” (Step Pharma S.A.S., priority 2019, published 2023).

Each compound was assayed on human CTPS1 versus CTPS2 (assay: Human CTPS1 versus CTPS2 selectivity assessment by RapidFire/MS analysis). Details: Table 26; RapidFire/MS IC50 ratio.
Format: biochemical
Description: Human CTPS1 versus CTPS2 Selectivity Assessment by RapidFire/MS Analysis.
The enzyme inhibitory activities against each target isoform of interest may be determined for the compounds of the invention using an optimised RapidFire high-throughput mass spectrometry (RF/MS) assay format. RF/MS assays for both human CTPS1 and CTPS2 may be performed in assay buffer consisting of 50 mM HEPES (Merck), 20 mM MgCl2, 5 mM KCl, 1 mM DTT, 0.01% Tween-20, pH to 8.0 accordingly. Human full-length active C-terminal FLAG-His-tag CTPS1 (UniProtKB—P17812, CTPS[1-591]-[…]) may be obtained from Proteros biostructures GmbH. Human full length active C-terminal FLAG-His-Avi tagged CTPS2 (UniProtKB-Q9NRF8, CTPS2 [1-586]-[…]) may be obtained from Harker Bio.
Human CTPS (1 or 2) protein may be prepared in 1× assay buffer to the final working protein concentration required for the reaction. A 2 uL volume per well of 2×CTPS (1 or 2) protein may be mixed with 40 nL of compound using acoustic (ECHO) delivery and incubated for 10 minutes at 25° C. Each isoform enzymatic reaction may be subsequently initiated by addition of 2 uL per well of a 2× substrate mix in assay buffer. For hCTPS1: ATP (0.3 mM), UTP (0.2 mM), GTP (0.07 mM) and L-glutamine (0.1 mM). For hCTPS2: ATP (0.1 mM), UTP (0.04 mM), GTP (0.03 mM) and L-glutamine (0.1 mM). Each mixture may be incubated for an appropriate amount of time per isoform within the determined linear phase of the reaction at 25′C. A 60 uL volume of stop solution (1% formic acid with 0.5 uM ^13C9-^15N3-CTP in H2O) may be added and the plate immediately heat-sealed and centrifuged for 10 minutes at 4,000 rpm. Following centrifugation, plates may be loaded onto the Agilent RapidFire microfluidic solid phase extraction system coupled to an API4000 triple quadrupole mass spectrometer (RF/MS) for analysis.
In all cases, the enzyme converts UTP to CTP. Highly specific and sensitive multiple reaction monitoring (MRM) MS methods may be optimised for the detection of the enzymatic reaction product, CTP, and the stable isotope labelled product standard ^13C9-^15N3-CTP. Readout for data analysis may be calculated as the ratio between the peak area of the product CTP and the internal standard ^13C9-^15N3-CTP. For data reporting, the following equation may be used: […]
For each screening plate, the means of the negative (DMSO) and positive control values were used for the calculation of the respective assay window (S/B) and Z′ values. The median of the respective control values was used for calculation of percent inhibition according to the following equation: […]
Percentage inhibition was then plotted against compound concentration, and the 50% inhibitory concentration (IC50) was determined from the resultant concentration-response curve.
Fold selectivity between CTPS1 and CTPS2 was subsequently calculated according to the following equation: […]
In the case of `CCOc1cncc(-c2ccc(NC(=O)C(C)(C)c3nc(NS(=O)(=O)C4CC4)ncc3C)cc2)n1` [Example P70], the “Selectivity (fold selectivity between CTPS1 and CTPS2)” value is reported as “+ (2-30 fold (+))”.
`CCC(C(=O)Nc1ccc(-c2cncc(OC(C)C)n2)cn1)c1ccnc(NS(=O)(=O)C2CC2)n1` (centres unmarked) [Example P89] was tested, and the “Selectivity (fold selectivity between CTPS1 and CTPS2)” value was “+++ (>60 fold (+++))”.
For `CCOc1cncc(-c2ccc(NC(=O)C(C)(C)c3ccnc(NS(C)(=O)=O)n3)nc2)n1` [Example P76], the “Selectivity (fold selectivity between CTPS1 and CTPS2)” value was “++ (>30-60 fold (++))”.
`CCOc1cncc(-c2ccc(NC(=O)C(C)(C)c3ccnc(NS(=O)(=O)C4CC4)n3)c(F)c2)n1` [Example P38] was tested, and the “Selectivity (fold selectivity between CTPS1 and CTPS2)” value was “+ (2-30 fold (+))”.
`CCC(C(=O)Nc1ccc(-c2cncc(OCC(F)(F)F)n2)cc1F)c1ccnc(NS(=O)(=O)C2CC2)n1` (centres unmarked) [Example P98] was tested, and the “Selectivity (fold selectivity between CTPS1 and CTPS2)” value was “+++ (>60 fold (+++))”.
For `CCOc1cncc(-c2ccc(NC(=O)C(F)(CC)c3cncc(NS(=O)(=O)C4CC4)n3)nc2)n1` (centres unmarked) [Example P200], the “Selectivity (fold selectivity between CTPS1 and CTPS2)” value was “++ (>30-60 fold (++))”.
For `CCOc1cncc(-c2ccc(NC(=O)C(CCOC)c3ccnc(NS(=O)(=O)C4CC4)n3)cc2)n1` (centres unmarked) [Example P110], the “Selectivity (fold selectivity between CTPS1 and CTPS2)” value was “++ (>30-60 fold (++))”.
With `CCOc1cncc(-c2ccc(NC(=O)C3(c4ccnc(NS(=O)(=O)C5CC5)n4)CC3)cc2)n1` [Example P83] the “Selectivity (fold selectivity between CTPS1 and CTPS2)” value was “+++ (>60 fold (+++))”.
With `CCOc1cncc(-c2ccc(NC(=O)C(C)(C)c3cncc(NS(=O)(=O)C4CC4)n3)cc2)n1` [Example P196] the “Selectivity (fold selectivity between CTPS1 and CTPS2)” value was “+++ (>60 fold (+++))”.
With `CCOc1cncc(-c2ccc(NC(=O)C(C)(OC)c3cncc(NS(=O)(=O)C4CC4)n3)nc2)n1` (centres unmarked) [Example P205b] the “Selectivity (fold selectivity between CTPS1 and CTPS2)” value was “++ (>30-60 fold (++))”.
For `CCOc1cncc(-c2ccc(NC(=O)C(F)(CC)c3ccnc(NS(C)(=O)=O)n3)nc2)n1` (centres unmarked) [Example P151], the “Selectivity (fold selectivity between CTPS1 and CTPS2)” value was “+++ (>60 fold (+++))”.
`CC(C)Oc1cncc(-c2ccc(NC(=O)Cc3ccnc(NS(=O)(=O)C4CC4)n3)c(F)c2)n1` [Example P12] was tested, and the “Selectivity (fold selectivity between CTPS1 and CTPS2)” value was “++ (>30-60 fold (++))”.
With `CCOc1cncc(-c2cnc(NC(=O)C(CC)c3ccnc(NS(=O)(=O)C4CC4)n3)c(C)c2)n1` (centres unmarked) [Example P155] the “Selectivity (fold selectivity between CTPS1 and CTPS2)” value was “+ (2-30 fold (+))”.
`CCOc1cncc(-c2ccc(NC(=O)C(C)(C)c3ccnc(NS(=O)(=O)CC)n3)cc2)n1` [Example P74] was tested, and the “Selectivity (fold selectivity between CTPS1 and CTPS2)” value was “++ (>30-60 fold (++))”.
For `CCOc1cncc(-c2ccc(NC(=O)C(F)(CC)c3cncc(NS(=O)(=O)C4CC4)n3)nc2)n1` (single isomer, unassigned) [Example P206], the “Selectivity (fold selectivity between CTPS1 and CTPS2)” value was “+++ (>60 fold (+++))”.
For `CCOc1cncc(-c2ccc(NC(=O)C3(c4ccnc(NS(=O)(=O)C5CC5)n4)CCOCC3)c(F)c2)n1` [Example P143], the “Selectivity (fold selectivity between CTPS1 and CTPS2)” value was “+++ (>60 fold (+++))”.
For `CCC(C(=O)Nc1ccc(-c2cncc(Cl)c2)cc1)c1ccnc(NS(=O)(=O)C2CC2)n1` (centres unmarked) [Example P1, N-(4-(5-Chloropyridin-3-yl)phenyl)-2-(2-(cyclopropanesulfonamido)pyrimidin-4-yl)butanamide], the “Selectivity (fold selectivity between CTPS1 and CTPS2)” value was “+ (2-30 fold (+))”.
For `CCOc1cncc(-c2ccc(C(=O)NC(CC)c3ccnc(NS(=O)(=O)C4CC4)n3)c(F)c2)n1` (centres unmarked) [Example P216], the “Selectivity (fold selectivity between CTPS1 and CTPS2)” value was “+++ (>60 fold (+++))”.
`CCOc1cncc(-c2ccc(NC(=O)C(CC)c3cncc(NS(=O)(=O)C4CC4)n3)cc2)n1` (centres unmarked) [Example P202] was tested, and the “Selectivity (fold selectivity between CTPS1 and CTPS2)” value was “+++ (>60 fold (+++))”.
In the case of `CCOc1cncc(-c2ccc(NC(=O)C(F)(CC)c3cncc(NS(=O)(=O)C4CC4)n3)nc2)n1` (single isomer, unassigned) [Example P207], the “Selectivity (fold selectivity between CTPS1 and CTPS2)” value is reported as “+ (2-30 fold (+))”.
In the case of `O=C(Cc1ccnc(NS(=O)(=O)C2CC2)n1)Nc1ccc(-c2cccnc2)cc1` [Example P16], the “Selectivity (fold selectivity between CTPS1 and CTPS2)” value is reported as “++ (>30-60 fold (++))”.
In the case of `CCC(C(=O)Nc1ccc(-c2cncc(C(F)(F)F)n2)cc1)c1ccnc(NS(=O)(=O)C2CC2)n1` (centres unmarked) [Example P103], the “Selectivity (fold selectivity between CTPS1 and CTPS2)” value is reported as “+ (2-30 fold (+))”.
With `CCOc1cncc(-c2ccc(NC(=O)C(CC)c3ccnc(NS(=O)(=O)C4CC4)n3)c(F)c2)n1` (centres unmarked) [Example P96] the “Selectivity (fold selectivity between CTPS1 and CTPS2)” value was “+ (2-30 fold (+))”.
With `CC(C)(C(=O)Nc1ccc(-c2cncc(C3CC3)n2)cc1F)c1ccnc(NS(=O)(=O)C2CC2)n1` [Example P128] the “Selectivity (fold selectivity between CTPS1 and CTPS2)” value was “+ (2-30 fold (+))”.
For `CCOc1cncc(-c2ccc(NC(=O)C(F)(CC)c3ccnc(NS(=O)(=O)C4CC4)n3)nc2)n1` (single isomer, unassigned) [Example P113, 2-(2-(cyclopropanesulfonamido)pyrimidin-4-yl)-N-(5-(6-ethoxypyrazin-2-yl)pyridin-2-yl)-2-fluorobutanamide], the “Selectivity (fold selectivity between CTPS1 and CTPS2)” value was “+ (2-30 fold (+))”.
In the case of `CCOc1cncc(-c2ccc(NC(=O)C(CC)c3cccc(NS(=O)(=O)C4CC4)n3)cc2)n1` (centres unmarked) [Example P191], the “Selectivity (fold selectivity between CTPS1 and CTPS2)” value is reported as “++ (>30-60 fold (++))”.
With `CCOc1cncc(-c2ccc(NC(=O)C3(c4ccnc(NS(=O)(=O)C5CC5)n4)CCCC3)cc2)n1` [Example P2, 1-(2-(Cyclopropanesulfonamido)pyrimidin-4-yl)-N-(4-(6-ethoxypyrazin-2-yl)phenyl)cyclopentanecarboxamide] the “Selectivity (fold selectivity between CTPS1 and CTPS2)” value was “+++ (>60 fold (+++))”.
With `CCOc1cncc(-c2ccc(NC(=O)C(C)(C)c3nc(NS(=O)(=O)C4CC4)ncc3F)cc2)n1` [Example P68] the “Selectivity (fold selectivity between CTPS1 and CTPS2)” value was “++ (>30-60 fold (++))”.
For `CCOc1cncc(-c2ccc(NC(=O)C(C)(CC)c3ccnc(NS(=O)(=O)C4CC4)n3)nc2)n1` (centres unmarked) [Example P163], the “Selectivity (fold selectivity between CTPS1 and CTPS2)” value was “+++ (>60 fold (+++))”.
`CC(C)(C(=O)Nc1ccc(-c2cccnc2)cc1)c1ccnc(NS(=O)(=O)C2CC2)n1` [Example P59] was tested, and the “Selectivity (fold selectivity between CTPS1 and CTPS2)” value was “+ (2-30 fold (+))”.
For `CCC(C(=O)Nc1ccc(-c2cncc(C(F)(F)F)n2)cn1)c1ccnc(NS(=O)(=O)C2CC2)n1` (centres unmarked) [Example P87], the “Selectivity (fold selectivity between CTPS1 and CTPS2)” value was “++ (>30-60 fold (++))”.
In the case of `CCOc1cncc(-c2ccc(NC(=O)C(F)(CC)c3ccnc(NS(=O)(=O)C4CC4)n3)nc2)n1` (racemic) [Example P112, 2-(2-(Cyclopropanesulfonamido)pyrimidin-4-yl)-N-(5-(6-ethoxypyrazin-2-yl)pyridin-2-yl)-2-fluorobutanamide], the “Selectivity (fold selectivity between CTPS1 and CTPS2)” value is reported as “++ (>30-60 fold (++))”.
For `CCOc1cncc(-c2ccc(NC(=O)C(CC)c3cccc(NS(=O)(=O)C4CC4)n3)nc2)n1` (centres unmarked) [Example P188], the “Selectivity (fold selectivity between CTPS1 and CTPS2)” value was “++ (>30-60 fold (++))”.

Same assay, conditions: Table 27; RapidFire/MS IC50 ratio
`CCOc1cncc(-c2ccc(NC(=O)C3(c4ccnc(NS(=O)(=O)C5CC5)n4)CCN(S(C)(=O)=O)CC3)nc2)n1` [Example P251] was tested, and the “Selectivity (fold selectivity between CTPS1 and CTPS2)” value was “+++ (>60 fold (+++))”.
In the case of `CCOc1cncc(-c2ccc(NC(=O)C3(c4ccnc(NS(=O)(=O)C5CC5)n4)CCC(F)(F)CC3)nc2)n1` [Example P242], the “Selectivity (fold selectivity between CTPS1 and CTPS2)” value is reported as “+++ (>60 fold (+++))”.
